One series deals with T1, tachykinin NK1 receptor (Homo sapiens, UniProt P25103).
T1 construct: expressed in transfected cells; host or cells: CHO cells
Description: NK1 receptor inhibition study, radioligand binding assay ([3H] Substance P). On the procedure:
The inhibition activity of avenanthramide L versus dihydroavenanthramide D and the structurally related avenanthramides A and D was evaluated in a radioligand binding assay.
The method employed in this study was adapted from the scientific literature so as to maximise reliability and reproducibility. Reference compound L-703,606 was run as an integral part of each experiment, to ensure the validity of the results obtained. The assay was performed under the conditions described in the following respective method.
Source: Human recombinant CHO cells
Incubation time/temperature: 90 minutes at 4° C. Incubation buffer: 20 mM HEPES, pH 7.4, • 1 mM MnCl2 • 0.1% BSA
Ligand: 0.80 nM [3H] Substance P
Non-specific ligand: 10.0 μM L-703,606 oxalate salt (CAS 144425-84-3) Specific binding: 90% Significance criteria: ≥50% of max. stimulation or inhibition Bmax: 1.70 pmol/mg protein
In another experiment, the inhibitory activity of a combination of avenanthramide L and another avenanthramide was evaluated in comparison to both substances alone in the radioligand binding assay as described in Example 1 to investigate a potential synergism.

A short description of series [1]: Temperature stability at 40° C. of avenanthramide mixture in solution. The series is classed as physicochemical. The note with it: for Content after 2 weeks at 40° C. / Content after 4 weeks at 40° C. / Content before treatment: Avn in mixture DragoCalm (glycerin/water); for Content before treatment: HPLC; for Degradation in %: Avn in mixture DragoCalm. The text has this:
with p=sample 1 and v=sample 2

For a further series, the system named is HSPB2 (=HSP27). As to the kind of experiment: Gene expression in neonatal human epidermal keratinocytes (real-time PCR): HSPB2. The class given is cell-based. The note with it: 100 μM, 24 hours, nHEK, vs DMSO vehicle; RQ ≥2.0 relevant. On the procedure: (§1) Neonatal human epidermal keratinocytes (nHEK) were cultivated in an EpiLife® medium (Gibco) including an HKGS kit (Gibco) with 5% C02 at 37° C. in accordance with the supplier's instructions.
(§2) The cells were treated for 24 hours, with the test compounds dissolved in DMSO and DMSO alone as the vehicle control. Genomic target expression levels in treated cells were measured using a quantitative Real-Time PCR comparison to vehicle control treatment.
(§3) RNA was isolated using Qiagen's RNeasy® Mini Kit. The total RNA concentrations were measured using Eppendorf's pCuvetteG 1.0 and BioPhotometer, by measuring the absorption at 260 nm. Purity control values such as E260/280 and E260/230 were calculated simultaneously. Reverse transcription was performed using the high-capacity RNA-to-cDNA kit of Applied Biosystems, in accordance with the supplier's instructions. Samples were treated in Biometra's PCR Thermocycler.
(§4) For fast real-time PCR, the cDNA was diluted with RNase-free water, and the TaqMan™ Fast Universal PCR Master Mix of Applied Biosystems was used.
(§5) Quantitative real-time PCR was performed using the StepOnePlus fast real-time PCR instrument by Applied Biosystems. Analysis was conducted using the StepOne software and 2^−ΔΔct method (normalised to endogenous control […] expression).
For upregulations, RQ values ≥2.0 are considered to be relevant.
Background: Quantitative PCR measures a nucleic acid by following its amplification.

The test system of the next series is BLVRB. As to the kind of experiment: Gene expression in neonatal human epidermal keratinocytes (real-time PCR): BLVRB. The series is classed as cell-based. The note with it: 100 μM, 24 hours, nHEK; RQ ≥2.0 relevant. On the procedure: as §1, §2, §3, §4, §5
(§6) For upregulations, RQ values ≥2.0 are considered to be relevant. […]

Another series relates to CD44. Description: Gene expression in neonatal human epidermal keratinocytes (real-time PCR): CD44. The series is classed as cell-based. The following applies: 100 μM, 24 hours, nHEK; RQ ≥2.0 relevant. On the procedure:
as §1, §2, §3, §4, §5, §6

A short description of series [2]: Radical-scavenging activity (ABTS assay). The series is classed as biochemical. The note with it: absorption at 734 nm. The text has this:
The ABTS assay measures the relative ability of antioxidants to scavenge the ABTS radical generated in aqueous phase, as compared with a Trolox (water-soluble vitamin E analogue) standard. The green-blue stable radical cationic chromophore 2,2′-azino-bis(3-ethylbenzothiazoline-6-sulphonate) (ABTS^•+) is generated by reaction with the ABTS salt using a strong oxidising agent (for example potassium permanganate or potassium persulphate) and has absorption maxima at 414, 645, 734 and 815 nm. The reduction of the blue-green ABTS radical by hydrogen-donating antioxidants is measured by the suppression of its characteristic long wave absorption spectrum.
With the aid of the ABTS assay, the antioxidative capacity of Avn L and Avn A were evaluated and compared.
2,2′-azino-bis-(3-ethylbenzothiazoline-6-sulphonic acid) (ABTS) was transformed into the blue-green radical cation ABTS^•+ using potassium persulphate. Through the addition of [6]-paradol and alpha-tocopherol, the radical cations were reduced and discoloration was observed, as determined photometrically by absorption at 734 nm. Inhibition of radical formation in the test substance is calculated by the following formula: […]
where • Atest substance is the absorption in the wells with the test substance including [6]-paradol and alpha-tocopherol • Acontrol is the absorption in the wells with no test substance.
Values for IC50 (the concentration at which radical formation is inhibited by 50%) were calculated from the inhibition of radical formation [%] in a series of dilutions of tested samples.

Series [3] deals with Primary human dermal fibroblasts. As to the kind of experiment: Cellular antioxidant activity (DCF-DA assay). The class given is cell-based. The following applies: Homo sapiens, Fibroblast, 24 h incubation, prooxidant challenge 1 mM 1 h, read-out: Inhibition of oxidation. The protocol: The DCF-DA assay is a fluorometric microplate assay for the detection of oxidative stress by detecting oxidation of 2′,7′-dichlorofluorescein-diacetate (DCF-DA) into the highly fluorescent compound 2′,7′-dichlorofluorescein (DCF) due to the presence of reactive oxygen species (ROS). The DCF-DA assay allows the cellular antioxidant activity of a substance to be determined.
Primary human dermal fibroblasts were seeded in a 96-well microtiter plate at a concentration of 0.5×10^4 cells/well. Cultivation took place at 37° C. and 5% CO2 in DMEM, enriched with 10% foetal calf serum. Confluence was supposed to be around 70% at the time, the incubation with the test substances began. The test substances were applied to the cells at a concentration of 500 μM. After 24 h of incubation, 100 μL H2DCF-DA-solution (10 μM) incl. DAPI (1:1000) was added to all samples (excluded the background-control) and incubated for one hour to deesterify the H2DCF-DA by cellular esterases. The resulting H2DCF was thereby trapped inside the cell. After the incubation, the cells were washed and the prooxidant challenge was set (1 mM, 1 h). The resulting fluorescence was read at λex 504 nm; λem 524 nm. An increased level of ROS (reactive oxygen species) led to an increased amount of fluorescence.
The inhibition of the oxidation in the presence of test substances was calculated according to the following equation: […]
The abbreviations have the following meanings: • RFU test substance: Relative fluorescence units of the wells with test substance and with cells • RFU control: Relative fluorescence units of the wells without test substance, but with cells • RFU without cells: Relative fluorescence units of the wells without test substance and without cells (blank)

Series [4] in a line: Oxidative stability (Oxipress) of avenanthramides in solution. The following applies: for Content after treatment / Degradation in %: 5 bars of oxygen at 70° C. for 24 hours; for Content before treatment: HPLC; for ΔE (colour difference, CIELAB): before vs after 5 bars of oxygen at 70° C. for 24 hours.
Description: Stability under exposure to oxygen and temperature was evaluated for dissolved pure avenanthramides in aqueous ethanolic solution, both alone and as an avenanthramide mixture.
Avenantharmide mixtures used were DragoCalm® (Symrise; INCI Name: Aqua, Glycerin, Avena Sativa Kernel Extract) or DragoCalm® SP (Symrise; INCI Name: Aqua, Glycerin, Pentylene Glycol, Avena Sativa Kernel Extract).
The liquids were either exposed to 5 bars of oxygen at 70° C. for 24 hours using the Oxipress device or stored for 2 and 4 weeks at 40° C. in a heating cabinet.
The content of Avns was determined by HPLC, and the colour was measured by colorimetry (Hach Lange Lico 690 instrument) before and after treatment.
Color can be determined using the CIELAB color model which is based on an opponent color system. CIELAB indicates the color by values on three axes: L*, a*, and b* with dimension L for lightness and a* and b* for the color-opponent dimensions red/green and yellow/blue, based on nonlinearly compressed coordinates. The L* axis extends from black (0) to white (100), the a* axis from green (−a) to red (+a) and the b* axis from blue (−b) to yellow (+b).
The difference of 2 colors ΔE can be calculated using the following equation:
ΔEp,v=√{square root over ((Lp*−Lv*)^2+(ap*−av*)^2+bp*−bv*)^2)}
A difference of ΔE of 0.5-1 can be visually observed by a trained evaluator by naked eye. A difference of 2-4 can be observed visually also by a non-trained evaluator.
The mark [5] stands for this setting: Avn in mixture DragoCalm SP (glycerin/water).
Where [6] appears, read: single Avn in aqueous ethanolic solution (0.01 wt %).

A value given as a limit tells only on which side of the number the result lay.

T1 sequence (P25103 whole entry): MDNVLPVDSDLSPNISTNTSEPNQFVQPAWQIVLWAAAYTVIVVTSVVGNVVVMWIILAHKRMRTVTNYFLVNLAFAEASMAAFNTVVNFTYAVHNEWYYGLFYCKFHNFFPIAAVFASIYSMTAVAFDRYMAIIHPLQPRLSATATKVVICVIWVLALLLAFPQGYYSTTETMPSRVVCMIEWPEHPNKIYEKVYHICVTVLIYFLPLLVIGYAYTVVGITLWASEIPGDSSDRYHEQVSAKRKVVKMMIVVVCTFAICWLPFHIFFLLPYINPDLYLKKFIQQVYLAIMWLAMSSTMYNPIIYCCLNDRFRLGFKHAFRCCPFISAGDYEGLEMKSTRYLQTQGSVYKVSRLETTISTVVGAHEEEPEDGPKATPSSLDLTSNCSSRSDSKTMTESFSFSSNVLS

On to `O=C(C=Cc1ccc(O)cc1)Nc1ccc(O)cc1C(=O)O` [Avn A, N-(4′-hydroxycinnamoyl)-5-hydroxyanthranilic acid], for which the inhibition (usually the percentage by which the read-out fell short of the control) at 0.1 ppm on tachykinin NK1 receptor (test concentration 0.1 ppm, read-out: Percent inhibition of specific binding to the tachykinin NK1 receptor) amounted to 3%. Besides, on tachykinin NK1 receptor (test concentration 1 ppm, read-out: Percent inhibition of specific binding to the tachykinin NK1 receptor), the inhibition at 1 ppm stood at 8%. The inhibition at 10 ppm at tachykinin NK1 receptor (test concentration 10 ppm, read-out: Percent inhibition of specific binding to the tachykinin NK1 receptor) was 14%. At tachykinin NK1 receptor (test concentration 100 ppm, read-out: Percent inhibition of specific binding to the tachykinin NK1 receptor), the inhibition at 100 ppm was found to be 21%. For the same compound, the inhibition at 125 ppm at tachykinin NK1 receptor (test concentration 125 ppm (Example 7), read-out: Percent inhibition of specific binding to the tachykinin NK1 receptor) came to 9%. In addition, in series [1], the “Content after 2 weeks at 40° C.” value was 50 ppm, the “Content after 4 weeks at 40° C.” value amounted to 50 ppm and the Content before treatment is 50 ppm. Moreover, in the series with HSPB2 (=HSP27), the “RQ value, HSPB2 (=HSP27)” value stood at 1.9. Further, the “RQ value, BLVRB” value in the series with BLVRB was “no effect”. Besides, the “RQ value, CD44” value with CD44 is “no effect”. Moreover, in series [2] (5 μM), the “Mean antioxidant activity (inhibition of radical formation)” value was 40 ± 4%. The “Mean antioxidant activity (inhibition of radical formation)” value in series [2] (10 μM) came to 76 ± 4%. Moreover, the inhibition at 500 µM in series [3] amounted to 14 ± 6%. For the same compound, in series [4] (setting [5]), the Content after treatment is given as 34 ppm, the Degradation in % came to 3% and the Content before treatment stood at 35 ppm. For the same compound, the Degradation in % entry in series [4] (Avn in mixture DragoCalm SP (glycerin/water), listed as Avenanthramide A) was “stable”. In addition, in series [4] (setting [6]), the Content after treatment amounted to 104 ppm; the Degradation in % is 0%; the Content before treatment turned out to be 104 ppm; the “ΔE (colour difference, CIELAB)” value was 0.2.
For `O=C(C=Cc1ccc(O)c(O)c1)Nc1ccc(O)cc1C(=O)O` [Avn C, N-(3′-4′-dihydroxycinnamoyl)-5-hydroxyanthranilic acid], the “Percent inhibition of specific binding to the tachykinin NK1 receptor” value is given as 9% at tachykinin NK1 receptor (test concentration 0.1 ppm), 15% on tachykinin NK1 receptor (test concentration 1 ppm), 27% at tachykinin NK1 receptor (test concentration 10 ppm) and 94% at tachykinin NK1 receptor (test concentration 100 ppm). Also, in series [1], the “Content after 2 weeks at 40° C.” value is given as 16 ppm. Moreover, the “Content after 4 weeks at 40° C.” value in series [1] is reported as 10 ppm. The figures for the Content before treatment in series [1], in series [4] (setting [5]) and in series [4] (setting [6]) were 20 ppm, 10 ppm and 105 ppm, respectively. Moreover, the Degradation in % is reported as 20% in series [1] (after 2 weeks at 40° C.); 50% in series [1] (after 4 weeks at 40° C.); 100% in series [4] (setting [5]); “completely degraded” in series [4] (Avn in mixture DragoCalm SP (glycerin/water), listed as Avenanthramide C); 15% in series [4] (setting [6]). For the same compound, the Content after treatment is below 1 ppm in series [4] (setting [5]) and 89 ppm in series [4] (setting [6]). The “ΔE (colour difference, CIELAB)” value in series [4] (setting [6]) is reported as 2.3.
In the case of `O=C(CCc1ccc(O)cc1)Nc1ccccc1C(=O)O` [Dihydroavenanthramide D, dihydroavenanthramide D], the “Percent inhibition of specific binding to the tachykinin NK1 receptor” value worked out at 8% at tachykinin NK1 receptor (test concentration 0.1 ppm), 6% on tachykinin NK1 receptor (test concentration 1 ppm), 8% at tachykinin NK1 receptor (test concentration 10 ppm) and 19% on tachykinin NK1 receptor (test concentration 100 ppm).

For the origin of these results see patent US20230118467A1, “COSMETIC OR PHARMACEUTICAL USE OF AVENANTHRAMIDE L” (priority 2020, published 2023).
